US5877175A, “Pharmaceutical compositions” (KNOLL Aktiengesellschaft, priority 1995, dated 1999)

Tests used:
[1] = test system: myoclonic seizures induced in mice by the administration of bicuculline; experiment: BICM test: antagonism of myoclonic seizures induced in mice by bicuculline; assay type: in vivo; conditions: female mice, 1 h before (+)-bicuculline 0.55 mg/kg i.v.; for ED50: Mus musculus, oral, dose inhibiting seizures in 50% of the animals; for % protection from bicuculline-induced seizures: figure in brackets, 100 mg/kg (po)
Excerpt: The ability of the compounds to antagonise the myoclonic seizures induced in mice by the administration of bicuculline was observed. Hereinafter, this test is referred to as "BICM".
In the BICM experiments groups of female mice in the weight range 25 to 30 grammes had free access to food and water until one hour before administration of the compound to be tested. The compound to be tested was orally administered at one or more doses in 1% aqueous methylcellulose solution. One hour later (+)-bicuculline at a dose of 0.55 mg/kg was administered intravenously into a tail vein. Such a dose of (+)-bicuculline would generally be expected to induce a seizure in the mice.
During the following two minutes the animals were observed and the percentage of animals in which seizures had been inhibited was recorded. Thus, the greater the anticonvulsant activity of the compound, the higher was the percentage recorded in the BICM test.
A value for the dose inhibiting the seizures in 50% of the animals (ED50) was calculated from the regression straight line plot of the percentage of animals in which seizures were inhibited against the dose of compound.

[2] = test system: seizures in mice induced by a maximal electroshock; experiment: MESM test: inhibition of seizures in mice induced by a maximal electroshock; assay type: in vivo; conditions: male mice, 1 h before electroshock (99 mA, 50 Hz, 1.0 second); for % protection from MES-induced seizure: figure in brackets, 100 mg/kg (po); for ED50: Mus musculus, oral, dose inhibiting seizures in 50% of the mice
Protocol: The ability of the compounds to inhibit seizures in mice induced by a maximal electroshock was observed. Hereinafter, this test is referred to as `MESM`.
In the MESM experiments, groups of male mice in the weight range 25 to 30 grammes had free access to food and water until the start of the experiment. The mice were divided into two groups, a control group and a test group to which a compound of formula I or II would be administered. The control group received an oral dose of 10 ml/kg of a vehicle of 1% aqueous methyl cellulose solution. […] One hour after administration of all drugs an electroshock of duration 1.0 second was administered to all the mice in both groups through ear clip electrodes moistened with saline. […] Such a shock would generally be expected to induce a seizure in the mice.
The greater the anticonvulsant activity of the compound of formula I or II, the higher was the percentage recorded in the MESM test.
If results at more than one dose were available, then a value for the dose inhibiting seizures in 50% of the mice (ED50) was calculated from the regression straight line plot of the percentage of mice in which seizures were inhibited against the dose of the compound of formula I or II administered.

Row | SMILES | ED50 [1] [mg/kg] | % protection from MES-induced seizure [2] [%] | further results
1 | CC(C)(C)c1nccc(-c2nn(-c3ccc(F)cc3)ccc2=O)n1 [Example 1, 3-(2-Tert-butylpyrimidin-4-yl)-1-(4-fluorophenyl)pyridazin-4(1H)-one] | 4.7 |  | 
2 | O=c1ccn(-c2ccc(F)cc2)nc1-c1ccnc(C2CCCCC2)n1 [Example 7, 3-(2-cyclohexylpyrimidin-4-yl)-1-(4-fluorophenyl)pyridazin-4(1H)-one] |  |  | % protection from bicuculline-induced seizures [1]: 70%
3 | CC(C)c1nccc(-c2nn(-c3ccc(Cl)cc3)ccc2=O)n1 [Example 5, 3-(2-isopropylpyrimidin-4-yl)-1-(4-chlorophenyl)pyridazin-4(1H)-one] | 11.8 | 50 | 
4 | CCCc1nccc(-c2nn(-c3ccc(F)cc3)ccc2=O)n1 [Example 9, 3-(2-propylpyrimidin-4-yl)-1-(4-fluorophenyl)pyridazin-4(1H)-one] |  | 50 | 
5 | O=c1ccn(-c2ccc(Cl)cc2)nc1-c1ccnc(C2CCCCC2)n1 [Example 8, 3-(2-cyclohexylpyrimidin-4-yl)-1-(4-chlorophenyl)pyridazin-4(1H)-one] | 12.9 |  | 
6 | O=c1ccn(-c2ccc(F)cc2)nc1-c1ccnc(-c2ccccc2)n1 [Example 3, 3-(2-phenylpyrimidin-4-yl)-1-(4-fluorophenyl)pyridazin-4(1H)-one] |  | 50 | 
7 | O=c1ccn(-c2ccc(Cl)cc2Cl)nc1-c1ccncn1 [Example 4, 3-(pyrimidin-4-yl)-1-(2,4-dichlorophenyl)pyridazin-4(1H)-one] | 158 |  | ED50 [2]: 73.6 mg/kg
8 | CC(C)c1nccc(-c2nn(-c3ccc(F)cc3)ccc2=O)n1 [Example 2, 3-(2-isopropylpyrimidin-4-yl)-1-(4-fluorophenyl)pyridazin-4(1H)-one] | 4.6 |  | ED50 [2]: 83.4 mg/kg
9 | O=c1ccn(-c2ccc(Cl)cc2)nc1-c1ccnc(C2CC2)n1 [Example 6, 3-(2-cyclopropylpyrimidin-4-yl)-1-(4-chlorophenyl)pyridazin-4(1H)-one] |  |  | % protection from bicuculline-induced seizures [1]: 60%
